Data taken from ChEMBL document CHEMBL5113404, “Design, synthesis and biological evaluation of new parbendazole derivatives for the treatment of HNSCC” (Eur J Med Chem, 2022).
Activity calls are given as the source filed them. The calls are words filed in the database; no cut-off is given here.

Legend:
[1] = Antiproliferative activity against human HN-6 cells assessed as cell growth inhibition incubated for 72 hrs by CCK-8 assay; type: functional, cell-based; settings: HN-6, 72 h
Tubulin = test: Inhibition of tubulin polymerization (unknown origin) by fluorescence based analysis; type: protein-complex assay, Homo sapiens
Tubulin (Homo sapiens) = Tubulin (Homo sapiens) (UniProt P68371+Q9H4B7+P0DPH7+P68366+Q13509+Q71U36+P04350+Q3ZCM7+P07437+P68363+Q9BQE3+Q6PEY2+Q13885+Q9BVA1+Q9BUF5); test: Inhibition of tubulin polymerization (unknown origin) at 20 micromol/L by fluorescence based analysis; type: protein-complex assay; settings: dose 20.0 µmol/L
[2] = Acute toxicity in mouse xenografted with human HN-6 cells assessed as body weight loss at 80 mg/kg,IG administered daily for 2 weeks; type: organism-based; settings: in vivo, po, 336 h
HN-6 [3] = test: Antitumor activity against human HN-6 cells xenografted in mouse assessed as reduction on tumor growth at 80 mg/kg,IG administered daily for 2 weeks; type: functional, organism-based
[4] = Induction of apoptosis in human HN-6 cells assessed as early apoptotic cells at 0.1 micromol/L incubated for 24 hrs by Annexin-V/FITC-PI staining based flow cytometry analysis (reference value: 2.04%); type: functional; settings: dose 0.1 µmol/L, at 0.1 µM
HN-6 [5] = test: Inhibition of cell invasion in human HN-6 cells at 200 to 500 nmol/L incubated for 24 hrs by crystal violet staining based transwell assay; type: functional; settings: dose 200-500 nmol/L
Mus musculus [6] = test: Antitumor activity against human HN-6 cells xenografted in mouse serum assessed as reduction on SCCAg level at 80 mg/kg,IG administered daily for 2 weeks by ELISA; type: functional, organism-based
[7] = Acute toxicity in Kunming mouse assessed as death at 1 g/Kg,IG after 15 days of administration; settings: in vivo, po, 1000 mg/kg, 360 h, time 15 day
[8] = Induction of cell cycle arrest in human HN-6 cells assessed as accumulation of cells at G1 phase at 0.1 micromol/L incubated for 24 hrs by PI staining based flow cytometry analysi (reference value: 45.33%); type: functional; settings: dose 0.1 µmol/L, at 0.1 µM
[9] = Tmax in rat at 100 mg/kg,IG measured upto 24 hrs by HPLC analysis; type: ADME, organism-based; settings: in vivo, po
[10] = Induction of apoptosis in human HN-6 cells assessed as necrotic cells at 1 micromol/L incubated for 24 hrs by Annexin-V/FITC-PI staining based flow cytometry analysis (reference value: 2.08%); type: functional; settings: dose 1 µmol/L, at 1 µM
[11] = Induction of apoptosis in human HN-6 cells assessed as early apoptotic cells at 1 micromol/L incubated for 24 hrs by Annexin-V/FITC-PI staining based flow cytometry analysis (reference value: 2.04%); type: functional; settings: dose 1 µmol/L, at 1 µM
[12] = Induction of apoptosis in human HN-6 cells assessed as viable cells at 1 micromol/L incubated for 24 hrs by Annexin-V/FITC-PI staining based flow cytometry analysis (reference value: 97.26%); type: functional; settings: HN-6, 24 h, dose 1 µmol/L, read-out: Activity
[13] = Cmax in rat at 100 mg/kg,IG measured upto 24 hrs by HPLC analysis; type: ADME, organism-based; set-up: dose 100 mg/kg, time < 24 hrs, route ig; settings: in vivo, po
[14] = Induction of apoptosis in human HN-6 cells assessed as late apoptotic cells at 0.1 micromol/L incubated for 24 hrs by Annexin-V/FITC-PI staining based flow cytometry analysis (reference value: 8.81%); type: functional; settings: dose 0.1 µmol/L, at 0.1 µM
HN-6 [15] = test: Induction of cell morphological changes in human HN-6 cells assessed as decrease in tubulin network around nucleus at 100 nmol/L incubated for 24 hrs by DAPI staining based confocal microscopy analysis; type: functional
[16] = Acute toxicity in Kunming mouse assessed as adverse effect at 1 g/Kg,IG after 15 days of administration; settings: in vivo, po, 1000 mg/kg, 360 h, time 15 day
Mus musculus [17] = test: Antitumor activity against human HN-6 cells xenografted in mouse serum assessed as reduction on CYFRA21-1 level at 80 mg/kg,IG administered daily for 2 weeks by ELISA; type: functional, organism-based
Mus musculus [18] = test: Antitumor activity against human HN-6 cells xenografted in mouse serum assessed as reduction on TPS level at 80 mg/kg,IG administered daily for 2 weeks by ELISA; type: functional, organism-based
CAL-27 = test: Antiproliferative activity against human CAL-27 cells assessed as cell growth inhibition incubated for 72 hrs by CCK-8 assay; type: functional, cell-based; settings: CAL-27, 72 h
[19] = Induction of cell cycle arrest in human HN-6 cells assessed as accumulation of cells at S phase at 0.1 micromol/L incubated for 24 hrs by PI staining based flow cytometry analysi (reference value: 32.12%); type: functional; settings: dose 0.1 µmol/L, at 0.1 µM
[20] = Cytotoxicity against human HFF-1 clls assessed as reduction in cell viability incubated for 72 hrs by CCK-8 assay; type: toxicity, cell-based; settings: HFF-1 cells
[21] = Induction of apoptosis in human HN-6 cells assessed as necrotic cells at 0.1 micromol/L incubated for 24 hrs by Annexin-V/FITC-PI staining based flow cytometry analysis (reference value: 2.08%); type: functional; settings: dose 0.1 µmol/L, at 0.1 µM
[22] = Induction of apoptosis in human HN-6 cells assessed as late apoptotic cells at 1 micromol/L incubated for 24 hrs by Annexin-V/FITC-PI staining based flow cytometry analysis (reference value: 8.81%); type: functional; settings: dose 1 µmol/L, at 1 µM
[23] = Induction of apoptosis in human HN-6 cells assessed as viable cells at 0.1 micromol/L incubated for 24 hrs by Annexin-V/FITC-PI staining based flow cytometry analysis (reference value: 97.26%); type: functional; settings: HN-6, 24 h, dose 0.1 µmol/L, read-out: Activity
[24] = Antimigratory activity in human HN-6 cells assessed as inhibition of cell migration at 0.1 micromol/L measured after 24 hrs by scratch wound assay based fluorescence microscope analysis; type: functional; settings: HN-6, 24 h, dose 0.1 µmol/L
[25] = Acute toxicity in IG dosed Kunming mouse assessed as lethal dose after 15 days of administration; type: organism-based; settings: in vivo, po, time 15 day
[26] = Half life in rat at 100 mg/kg,IG measured upto 24 hrs by HPLC analysis; type: ADME, organism-based; settings: in vivo, po
FaDu = test: Antiproliferative activity against human FaDu cells assessed as cell growth inhibition incubated for 72 hrs by CCK-8 assay; type: functional, cell-based; settings: read-out: IC50
[27] = Induction of cell cycle arrest in human HN-6 cells assessed as accumulation of cells at S phase at 0.1 micromol/L incubated for 24 hrs by PI staining based flow cytometry analysi (reference value: 31.19%); type: functional; settings: dose 0.1 µmol/L, at 0.1 µM
[28] = AUC (0 to t) in rat at 100 mg/kg,IG measured upto 24 hrs by HPLC analysis; type: ADME, organism-based; set-up: dose 100 mg/kg, time < 24 hrs, route ig; settings: in vivo, po
[29] = Acute toxicity in Kunming mouse assessed as adverse effect at 158 mg/kg,IG after 15 days of administration; type: organism-based; settings: in vivo, po, 360 h, time 15 day
[30] = Acute toxicity in Kunming mouse assessed as hypothermia at 631 mg/kg,IG after 6 hrs of administration; type: organism-based; settings: in vivo, po
[31] = Acute toxicity in Kunming mouse assessed as change in body weight at 251 mg/kg,IG after 15 days of administration; type: organism-based; settings: in vivo, po, 360 h, time 15 day
[32] = Acute toxicity in Kunming mouse assessed as lethargy at 1 g/Kg,IG after 2 hrs of administration; settings: in vivo, po, 1000 mg/kg
[33] = Acute toxicity in Kunming mouse assessed as hypothermia at 1 g/Kg,IG after 2 hrs of administration; settings: in vivo, po, 1000 mg/kg
[34] = Acute toxicity in Kunming mouse assessed as change in body weight at 158 mg/kg,IG after 15 days of administration; type: organism-based; settings: in vivo, po, 360 h, time 15 day
[35] = Acute toxicity in Kunming mouse assessed as adverse effect at 251 mg/kg,IG after 15 days of administration; type: organism-based; settings: in vivo, po, 360 h, time 15 day
[36] = Acute toxicity in Kunming mouse assessed as weakness at 631 mg/kg,IG after 6 hrs of administration; type: organism-based; settings: in vivo, po
[37] = Acute toxicity in Kunming mouse assessed as weakness at 1 g/Kg,IG after 2 hrs of administration; settings: in vivo, po, 1000 mg/kg
[38] = Acute toxicity in Kunming mouse assessed as death at 398 mg/kg,IG after 15 days of administration; type: organism-based; settings: in vivo, po, 360 h, time 15 day
[39] = Acute toxicity in Kunming mouse assessed as lethargy at 631 mg/kg,IG after 6 hrs of administration; type: organism-based; settings: in vivo, po

Cc1ccc2nc(NC(=O)OC(C)C)[nH]c2c1
IC50 [1]: 595 nM
IC50 (Tubulin): 6270 nM
inhibition (Tubulin (Homo sapiens)): 71.6%

CCCCc1ccc2nc(NC(=O)c3ccco3)[nH]c2c1
IC50 [1]: 349 nM
IC50 (Tubulin): 16200 nM
inhibition (Tubulin (Homo sapiens)): 57.7%

Cc1cc2nc(NC(=O)OC(C)C)[nH]c2cc1C
IC50 [1]: 135 nM
IC50 (Tubulin): 5080 nM
inhibition (Tubulin (Homo sapiens)): 89.4%

C=CCOC(=O)Nc1nc2ccc(CCCC)cc2[nH]1
Activity [2]: Non-Toxic
Activity (HN-6 [3]): Active
Activity [4]: 4.98%
inhibition (HN-6 [5]): Active
Activity (Mus musculus [6]): Active
Activity [7]: Non-Toxic
Activity [8]: 14.51%
IC50 [1]: 46.9 nM
Tmax [9]: 4 h
Activity [10]: 5.48%
Activity [11]: 12.28%
viability at 1 µM [12]: 60.8%
Cmax [13]: 83 ng/mL
IC50 (Tubulin): 4410 nM
Activity [14]: 12.09%
Activity (HN-6 [15]): Active
Activity [16]: Non-Toxic
Activity (Mus musculus [17]): Active
Activity (Mus musculus [18]): Active
IC50 (CAL-27): 118 nM
Activity [19]: 19.14%
IC50 at 72 h [20]: > 20000 nM
inhibition (Tubulin (Homo sapiens)): 86.6%
Activity [21]: 3.77%
Activity [22]: 21.43%
viability at 0.1 µM [23]: 79.3%
inhibition at 0.1 µM [24]: 8.1%
LD50 at 360 h [25]: > 1000 mg/kg
half-life [26]: 2.19 h
IC50 (FaDu): 126 nM
Activity [27]: 64.65%
AUC(0-t) at 24 h [28]: 386 ng·h/mL

CCCCCc1ccc2nc(NC(=O)OC(C)C)[nH]c2c1
IC50 [1]: 170 nM
IC50 (Tubulin): 6810 nM
IC50 (CAL-27): 312 nM
inhibition (Tubulin (Homo sapiens)): 100%
IC50 (FaDu): 228 nM

CCCCc1ccc2nc(NC(=O)OC(C)C)[nH]c2c1
Activity [2]: Non-Toxic
Activity [29]: Non-Toxic
Activity (HN-6 [3]): Active
Activity [30]: Toxic
Activity [31]: Non-Toxic
Activity [4]: 11.53%
inhibition (HN-6 [5]): Active
Activity (Mus musculus [6]): Active
Activity [32]: Toxic
Activity [8]: 14.26%
IC50 [1]: 34.9 nM
Tmax [9]: 2 h
Activity [10]: 6.23%
Activity [11]: 16.44%
Activity [33]: Toxic
viability at 1 µM [12]: 52.6%
Cmax [13]: 169 ng/mL
IC50 (Tubulin): 4040 nM
Activity [14]: 20.59%
Activity (HN-6 [15]): Active
Activity [34]: Non-Toxic
Activity (Mus musculus [17]): Active
Activity (Mus musculus [18]): Active
IC50 (CAL-27): 93.1 nM
Activity [19]: 16.16%
Activity [35]: Non-Toxic
Activity [36]: Toxic
IC50 at 72 h [20]: > 20000 nM
inhibition (Tubulin (Homo sapiens)): 98.9%
Activity [21]: 5.01%
Activity [37]: Toxic
Activity [22]: 24.75%
viability at 0.1 µM [23]: 62.9%
inhibition at 0.1 µM [24]: 6.27%
LD50 at 360 h [25]: 341 mg/kg
half-life [26]: 1.95 h
Activity [38]: Toxic
IC50 (FaDu): 126 nM
Activity [27]: 68.08%
Activity [39]: Toxic
AUC(0-t) at 24 h [28]: 542 ng·h/mL

CCCCc1ccc2nc(NC(=O)C3CCOCC3)[nH]c2c1
IC50 [1]: 1180 nM
IC50 (Tubulin): 4400 nM
inhibition (Tubulin (Homo sapiens)): 100%

CCCCc1ccc2[nH]c(NC(=O)OC)nc2c1 [PARBENDAZOLE]
Activity [4]: 13.03%
inhibition (HN-6 [5]): Active
Activity [7]: Non-Toxic
Activity [8]: 13.56%
IC50 [1]: 102 nM
Tmax [9]: 4 h
Activity [10]: 5.94%
Activity [11]: 16.34%
viability at 1 µM [12]: 51.8%
Cmax [13]: 141 ng/mL
IC50 (Tubulin): 9550 nM
Activity [14]: 21.71%
Activity (HN-6 [15]): Active
Activity [16]: Non-Toxic
IC50 (CAL-27): 173 nM
Activity [19]: 16.02%
IC50 at 72 h [20]: > 20000 nM
inhibition (Tubulin (Homo sapiens)): 76.7%
Activity [21]: 4.46%
Activity [22]: 25.96%
viability at 0.1 µM [23]: 60.8%
inhibition at 0.1 µM [24]: 12.8%
LD50 at 360 h [25]: > 1000 mg/kg
half-life [26]: 2.16 h
IC50 (FaDu): 160 nM
Activity [27]: 69.09%
AUC(0-t) at 24 h [28]: 403 ng·h/mL

CCCCc1ccc2nc(NC(=O)OC(C)CC)[nH]c2c1 (configuration not stated)
IC50 [1]: 74.6 nM
IC50 (Tubulin): 1620 nM
IC50 (CAL-27): 171 nM
inhibition (Tubulin (Homo sapiens)): 99.7%
IC50 (FaDu): 154 nM

CCCCc1ccc2nc(NC(=O)OCCC)[nH]c2c1
IC50 [1]: 254 nM
IC50 (Tubulin): 5340 nM
IC50 (CAL-27): 252 nM
inhibition (Tubulin (Homo sapiens)): 88.8%
IC50 (FaDu): 284 nM
